We go through 4 molecules from BindingDB's records for doi:10.1016/j.chembiol.2017.02.001 (The University of Tokyo, 2017).

Where a SMILES comes first, the peptide text is derived from it.

Settings in all cases: pH 7
Assay [1] deals with T1, Pancreatic alpha-amylase (Homo sapiens, UniProt P04746).
T1 sequence (P04746 whole entry): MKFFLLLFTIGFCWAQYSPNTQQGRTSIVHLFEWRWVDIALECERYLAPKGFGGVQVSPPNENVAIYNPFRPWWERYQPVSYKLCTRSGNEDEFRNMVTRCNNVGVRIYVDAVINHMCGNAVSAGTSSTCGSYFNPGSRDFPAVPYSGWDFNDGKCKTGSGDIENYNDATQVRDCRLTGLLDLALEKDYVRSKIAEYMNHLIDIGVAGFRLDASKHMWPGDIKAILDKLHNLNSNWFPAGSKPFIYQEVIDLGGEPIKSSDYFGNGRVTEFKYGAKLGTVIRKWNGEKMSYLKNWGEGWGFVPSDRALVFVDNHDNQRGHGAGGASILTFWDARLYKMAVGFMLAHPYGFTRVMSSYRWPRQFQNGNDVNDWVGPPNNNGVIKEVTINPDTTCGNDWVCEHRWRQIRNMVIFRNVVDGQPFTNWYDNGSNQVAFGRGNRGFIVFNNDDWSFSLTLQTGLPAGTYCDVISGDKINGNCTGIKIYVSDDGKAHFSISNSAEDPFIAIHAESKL
Nature of the assay: Inhibition Kinetics Assay. As to the method: The release of 2-chloro-4-nitrophenol resulting from the HPA-catalyzed hydrolysis of 2-chloro-4-nitrophenyl a-maltotrioside (CNPG3) was monitored at 400 nm. Reactions were run at 30 °C in 50 mM NaPi and 100 mM NaCl (pH 7.0). Reactions were monitored over 5 min to measure the initial reaction rate.

The target in a further assay is T2, Alpha-amylase 1A (Homo sapiens, UniProt P0DUB6).
T2 sequence (P0DUB6 whole entry): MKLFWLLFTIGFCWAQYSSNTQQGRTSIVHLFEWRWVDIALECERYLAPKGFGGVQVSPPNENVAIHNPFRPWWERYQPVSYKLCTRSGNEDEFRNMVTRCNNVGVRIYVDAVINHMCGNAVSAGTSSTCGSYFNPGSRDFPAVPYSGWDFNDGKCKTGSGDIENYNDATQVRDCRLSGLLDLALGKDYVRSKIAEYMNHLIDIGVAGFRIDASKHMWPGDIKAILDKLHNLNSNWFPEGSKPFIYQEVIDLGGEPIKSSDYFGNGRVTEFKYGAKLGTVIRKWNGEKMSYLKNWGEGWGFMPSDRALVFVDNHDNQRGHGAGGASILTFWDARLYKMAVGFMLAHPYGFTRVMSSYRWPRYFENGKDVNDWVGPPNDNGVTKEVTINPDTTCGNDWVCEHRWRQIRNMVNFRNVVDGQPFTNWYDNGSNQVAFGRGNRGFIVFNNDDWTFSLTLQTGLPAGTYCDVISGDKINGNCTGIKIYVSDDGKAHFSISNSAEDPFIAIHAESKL
Nature of the assay: Inhibition Assay (piHA-Dm). As to the method: (§1) After kinetic analysis with HPA, piHA-Dm was tested as an inhibitor of ten additional enzymes. The conditions are listed as follows: Agrobacterium faecalis β-glucosidase (2.5 × 10^-4 mg/mL enzyme, 50 mM sodium phosphate pH 7, 4 mM PNP β-gal); Bos taurus β-galactosidase (6.9 × 10^-2 mg/mL enzyme, 50 mM sodium phosphate pH 7, 1 mM PNP β-gal); S. cerevisiae α-glucosidase (5 × 10^-3 mg/mL enzyme, 50 mM sodium phosphate pH 7, 1 mM α-glc); Human maltase-glucoamylase (8.1 × 10^-2 mg/mL enzyme, 50 mM sodium phosphate pH 7, 1 mM α-glc); Mouse maltase-glucoamylase (8.1 × 10^-2 mg/mL enzyme, 50 mM sodium phosphate pH 7, 1 mM α-glc); Butyrivibrio fibrisolvens α-amylase (1.7 × 10^-4 mg/mL enzyme, 50 mM sodium phosphate 100 mM NaCl pH 7, 1 mM CNPG3); Aspergillus oryzae α-amylase (1.9 × 10^-4 mg/mL enzyme, 50 mM sodium phosphate 100 mM NaCl pH 7, 1 mM CNPG3); Porcine pancreatic α-amylase (6.7 × 10^-3 mg/mL enzyme, 50 mM sodium phosphate 100 mM N

Assay [2] concerns the target Soluble maltase-glucoamylase (Mus musculus, UniProt Q6XK23). Nature of the assay: Inhibition Assay (piHA-Dm). As to the method:
as §1

The next assay addresses Maltase-glucoamylase (Homo sapiens, UniProt O43451). Kind of assay: Inhibition Assay (piHA-Dm). As to the method: as §1
In assay [3] the target is T3, Pancreatic alpha-amylase (Sus scrofa, UniProt P00690).
T3 sequence (P00690 whole entry): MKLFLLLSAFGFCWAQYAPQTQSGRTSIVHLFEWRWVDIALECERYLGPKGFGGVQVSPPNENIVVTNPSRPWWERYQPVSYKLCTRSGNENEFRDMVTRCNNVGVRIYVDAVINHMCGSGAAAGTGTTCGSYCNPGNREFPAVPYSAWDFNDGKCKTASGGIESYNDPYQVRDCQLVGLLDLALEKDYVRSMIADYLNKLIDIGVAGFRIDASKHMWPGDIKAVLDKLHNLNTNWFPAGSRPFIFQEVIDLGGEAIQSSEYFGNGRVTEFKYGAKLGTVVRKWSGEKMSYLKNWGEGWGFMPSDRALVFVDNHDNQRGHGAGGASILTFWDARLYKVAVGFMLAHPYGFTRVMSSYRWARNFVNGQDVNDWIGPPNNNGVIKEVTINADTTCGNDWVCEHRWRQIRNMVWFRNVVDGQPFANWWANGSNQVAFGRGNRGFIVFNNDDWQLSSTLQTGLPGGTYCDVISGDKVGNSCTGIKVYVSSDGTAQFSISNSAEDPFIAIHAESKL
Nature of the assay: Inhibition Assay (piHA-Dm). As to the method: as §1

Chain of Soluble maltase-glucoamylase (Q6XK23 whole entry): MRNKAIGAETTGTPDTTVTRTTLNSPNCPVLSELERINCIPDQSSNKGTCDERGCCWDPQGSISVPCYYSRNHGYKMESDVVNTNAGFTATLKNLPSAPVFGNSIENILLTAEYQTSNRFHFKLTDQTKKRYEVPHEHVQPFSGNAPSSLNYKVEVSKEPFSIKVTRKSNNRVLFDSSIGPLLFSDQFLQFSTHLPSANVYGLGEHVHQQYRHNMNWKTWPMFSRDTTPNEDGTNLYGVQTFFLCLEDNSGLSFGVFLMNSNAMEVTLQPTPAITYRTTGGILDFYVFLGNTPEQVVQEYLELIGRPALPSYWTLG
Chain of Maltase-glucoamylase (O43451 whole entry): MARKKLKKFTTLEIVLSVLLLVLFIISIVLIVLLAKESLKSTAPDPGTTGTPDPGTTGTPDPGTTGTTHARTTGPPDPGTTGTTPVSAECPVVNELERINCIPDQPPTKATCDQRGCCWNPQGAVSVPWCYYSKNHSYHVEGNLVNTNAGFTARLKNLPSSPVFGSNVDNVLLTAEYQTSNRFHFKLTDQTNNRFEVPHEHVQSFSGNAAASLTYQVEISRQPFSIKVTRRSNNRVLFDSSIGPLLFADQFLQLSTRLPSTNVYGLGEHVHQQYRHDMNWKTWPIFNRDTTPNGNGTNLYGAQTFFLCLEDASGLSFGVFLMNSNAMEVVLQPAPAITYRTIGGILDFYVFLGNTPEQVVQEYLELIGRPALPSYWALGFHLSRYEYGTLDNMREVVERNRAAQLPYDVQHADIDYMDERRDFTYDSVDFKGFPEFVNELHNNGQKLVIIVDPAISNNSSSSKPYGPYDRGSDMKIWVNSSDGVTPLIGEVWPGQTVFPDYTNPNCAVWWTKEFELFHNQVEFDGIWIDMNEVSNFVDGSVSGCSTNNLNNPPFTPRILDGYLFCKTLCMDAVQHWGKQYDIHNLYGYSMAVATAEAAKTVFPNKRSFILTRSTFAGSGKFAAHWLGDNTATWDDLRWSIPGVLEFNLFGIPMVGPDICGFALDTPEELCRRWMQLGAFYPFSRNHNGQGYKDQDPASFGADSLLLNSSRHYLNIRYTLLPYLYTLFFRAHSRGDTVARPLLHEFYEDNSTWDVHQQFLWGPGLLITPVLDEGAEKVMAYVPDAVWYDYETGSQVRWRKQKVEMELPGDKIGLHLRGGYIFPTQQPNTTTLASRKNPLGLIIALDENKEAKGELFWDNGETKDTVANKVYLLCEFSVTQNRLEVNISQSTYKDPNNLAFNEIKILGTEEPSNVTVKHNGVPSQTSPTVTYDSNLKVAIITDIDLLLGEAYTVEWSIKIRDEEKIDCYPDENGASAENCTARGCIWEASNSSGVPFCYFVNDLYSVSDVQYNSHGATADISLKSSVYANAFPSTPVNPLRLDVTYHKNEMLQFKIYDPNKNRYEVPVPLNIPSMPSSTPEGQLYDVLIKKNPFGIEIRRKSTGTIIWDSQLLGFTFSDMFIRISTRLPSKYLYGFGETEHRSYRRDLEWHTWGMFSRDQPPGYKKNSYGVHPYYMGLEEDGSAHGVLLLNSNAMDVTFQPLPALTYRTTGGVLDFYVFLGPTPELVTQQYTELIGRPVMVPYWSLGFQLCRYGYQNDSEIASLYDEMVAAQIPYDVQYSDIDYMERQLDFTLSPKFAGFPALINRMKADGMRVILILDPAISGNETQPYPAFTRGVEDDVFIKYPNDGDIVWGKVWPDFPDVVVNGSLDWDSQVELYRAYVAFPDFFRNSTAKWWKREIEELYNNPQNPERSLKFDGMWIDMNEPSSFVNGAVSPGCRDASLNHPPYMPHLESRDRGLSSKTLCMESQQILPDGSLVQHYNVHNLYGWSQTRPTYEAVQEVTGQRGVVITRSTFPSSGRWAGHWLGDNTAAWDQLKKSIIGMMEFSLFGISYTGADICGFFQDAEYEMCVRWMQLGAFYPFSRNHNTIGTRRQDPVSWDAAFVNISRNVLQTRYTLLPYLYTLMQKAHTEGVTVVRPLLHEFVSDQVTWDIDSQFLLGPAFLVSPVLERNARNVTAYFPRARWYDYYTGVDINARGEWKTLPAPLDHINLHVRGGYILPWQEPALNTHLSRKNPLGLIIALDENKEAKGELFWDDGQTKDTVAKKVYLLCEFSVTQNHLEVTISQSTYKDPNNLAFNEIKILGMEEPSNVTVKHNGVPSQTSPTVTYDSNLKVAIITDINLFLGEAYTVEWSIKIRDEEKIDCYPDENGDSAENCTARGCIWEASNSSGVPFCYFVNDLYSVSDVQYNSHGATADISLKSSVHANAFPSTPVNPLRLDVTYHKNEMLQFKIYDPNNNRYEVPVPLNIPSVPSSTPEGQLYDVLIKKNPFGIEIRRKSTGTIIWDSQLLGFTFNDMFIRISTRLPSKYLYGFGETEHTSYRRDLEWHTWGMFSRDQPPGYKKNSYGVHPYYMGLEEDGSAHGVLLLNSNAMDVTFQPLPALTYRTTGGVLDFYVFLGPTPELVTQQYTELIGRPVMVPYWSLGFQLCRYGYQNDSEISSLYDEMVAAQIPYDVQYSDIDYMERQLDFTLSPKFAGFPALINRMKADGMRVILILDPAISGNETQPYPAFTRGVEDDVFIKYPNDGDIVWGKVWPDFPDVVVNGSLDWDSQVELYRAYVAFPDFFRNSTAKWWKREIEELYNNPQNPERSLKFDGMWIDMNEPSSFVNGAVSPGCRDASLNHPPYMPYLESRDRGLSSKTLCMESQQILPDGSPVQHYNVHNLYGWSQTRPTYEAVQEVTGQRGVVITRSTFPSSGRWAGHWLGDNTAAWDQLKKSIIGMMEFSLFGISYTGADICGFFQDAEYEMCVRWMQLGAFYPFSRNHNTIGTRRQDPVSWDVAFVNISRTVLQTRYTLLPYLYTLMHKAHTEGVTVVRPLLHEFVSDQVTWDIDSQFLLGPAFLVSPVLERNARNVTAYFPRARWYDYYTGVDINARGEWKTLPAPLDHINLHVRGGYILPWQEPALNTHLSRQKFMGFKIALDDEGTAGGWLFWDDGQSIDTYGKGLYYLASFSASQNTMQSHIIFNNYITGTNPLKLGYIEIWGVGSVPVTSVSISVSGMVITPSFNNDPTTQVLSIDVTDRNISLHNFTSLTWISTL

The molecule `CC[C@H](C)[C@H](NC(=O)[C@H](CCCNC(=N)N)NC(=O)[C@@H](NC(=O)[C@H](Cc1cnc[nH]1)NC(=O)[C@H](CCCNC(=N)N)NC(=O)[C@H](C)NC(=O)[C@H](Cc1c[nH]c2ccccc12)NC(=O)[C@H](CS)N1SCC(=O)N[C@@H](Cc2ccc(O)cc2)C(=O)N2CCC[C@H]2C(=O)N[C@@H](Cc2ccc(O)cc2)C(=O)N[C@@H](CO)C1=O)C(C)C)C(=O)N[C@@H](CCCNC(=N)N)C(=O)N[C@H](CCC(=O)O)C(=O)N[C@@H](CC(N)=O)C(N)=O` [piHA-D1] returned a Ki at Pancreatic alpha-amylase [1] of 1 nM. In other words, the single-digit nanomolar range.

At Pancreatic alpha-amylase [1], `CC(C)[C@H](NC(=O)[C@H](Cc1c[nH]c2ccccc12)NC(=O)[C@H](CS)N1SCC(=O)N[C@@H](Cc2ccc(O)cc2)C(=O)N2CCC[C@H]2C(=O)N[C@@H](Cc2ccc(O)cc2)C(=O)N[C@@H](CO)C1=O)C(=O)N[C@@H](CCCNC(=N)N)C(=O)N[C@@H](Cc1cnc[nH]1)C(=O)N[C@@H](CO)C(=O)N[C@@H](CC(=O)O)C(=O)N1CCC[C@H]1C(=O)N[C@@H](Cc1cnc[nH]1)C(=O)N[C@@H](CCCCN)C(=O)N[C@@H](Cc1ccccc1)C(N)=O` [piHA-D3] displayed a Ki of 2.7 nM.

The molecule `CC(C)[C@H](NC(=O)[C@H](Cc1c[nH]c2ccccc12)NC(=O)[C@H](CS)N1SCC(=O)N[C@@H](Cc2ccc(O)cc2)C(=O)N2CCC[C@H]2C(=O)N[C@@H](Cc2ccc(O)cc2)C(=O)N[C@@H](CO)C1=O)C(=O)N[C@@H](CCCNC(=N)N)C(=O)N[C@@H](Cc1cnc[nH]1)C(N)=O` [piHA-Dm] displayed an IC50 against Alpha-amylase 1A of 34 nM. On Pancreatic alpha-amylase [1], the inhibitory constant (Ki) was determined as 7 nM.

With `CC(C)[C@H](NC(=O)[C@H](Cc1c[nH]c2ccccc12)NC(=O)[C@@H]1CSCC(=O)N[C@@H](Cc2ccc(O)cc2)C(=O)N2CCC[C@H]2C(=O)N[C@@H](Cc2ccc(O)cc2)C(=O)N[C@@H](CO)C(=O)N1)C(=O)N[C@@H](CCCNC(=N)N)C(=O)N[C@@H](Cc1cnc[nH]1)C(N)=O` [piHA-Dm] (HELM PEPTIDE1{[O=C(C[*:3])[*:2]].Y.P.Y.S.C.W.V.R.H.[am]}$PEPTIDE1,PEPTIDE1,1:R3-6:R3$$$V2.0), the IC50 in assay [2] stood at 990 nM; against Maltase-glucoamylase it was 520 nM; at Pancreatic alpha-amylase [3] it was 8.5 nM.

As usually defined, the Ki is a measure of affinity in units of concentration, obtained from inhibition or displacement. The low end stands for tighter binding, the high end for weaker binding. As usually defined, the IC50 is the midpoint of a concentration-inhibition curve. A low value points to greater potency.
